“Also recorded” adds a separate entry of the source. Where two headings read alike, the source gives them in different places. Values belong to the compound of their own block, whether it stands above or below them.
Columns and labels:
HepG2 cells [1] = test system: HepG2 cells; set-up: method as in Yu et al., 2020; conditions: another report; ref Yu et al., 2020; read-out: concentration inhibiting 50% cell viability; cited from earlier work
L02 cells [2] = assay: CCK-8 cell viability assay, L02 cells; assay type: cell-based, human
Procedure: (§1) L02 and HepG2 cells were purchased from the China Infrastructure of Cell Line Resources (Beijing, China). They were cultured in Dulbecco’s modified Eagle’s medium (DMEM) high glucose medium (Gibco, Grand Island, NY, USA) supplemented with 10% (v/v) fetal bovine serum (FBS) (Gibco, Melbourne, VIC, Australia) and 1% U/ml of antibiotics (penicillin and streptomycin) at 37°C in an atmosphere containing 5% CO2.
(§2) The viability of L02 and HepG2 cells was determined using the CCK-8 assay. L02 and HepG2 cells (1 × 10^4 cells/well) were seeded into 96-well plates for 12 h until they visibly reached confluence. Then, the adherent cells were treated with varying concentrations of psoralen (120.86, 161.34, 215.12, 286.83, 382.44, 509.92, 679.90, and 906.53 μmol/L), isopsoralen (161.15, 214.87, 286.64, 382.47, 509.88, 679.85, 906.53, and 1,208.64 μmol/L), bavachin (16.40, 21.95, 29.23, 38.97, 52.04, 69.37, 92.49, and 123.32 μmol/L), psoralidin (8.92, 11.89, 15.82, 21.17, 28.19, 37.58, 50.19, and 66.90 μmol/L), bavachinin (11.82, 15.72, 21.04, 28.01, 37.35, 49.88, 66.49, and 88.65 μmol/L), neobavaisoflavone (5.21, 9.30, 16.50, 29.41, 52.36, 93.07, 165.53, and 294.46 μmol/L), and bakuchiol (11.70, 15.60, 20.75, 27.77, 36.97, 49.30, 65.84, and 87.76 μmol/L). Consequently, these cells were incubated for 24 h, and 100 μl of 10% (v/v) CCK-8 medium solution was added to each well for 2 h. The absorbance (optical density (OD)) of the culture medium was detected at 450 nm using a Multiskan GO microplate reader (Thermo Fisher Scientific). Each experiment was repeated thrice, and each treatment was probed in at least six wells. The following equation was used to calculate the viability of the cells (%): Cell Viability (%)=ODcompound−ODblank/ODcontrol−ODblank×100%

HepG2 cells [3] = assay: CCK-8 cell viability assay, HepG2 cells; assay type: cell-based, human
Procedure: as §1, §2

L02 and HepG2 cells [4] = assay: CCK-8 cell viability assay, L02 and HepG2 cells not distinguished; assay type: cell-based, human; conditions: for effect on cell viability / hepatocyte toxicity (in words): L02 and HepG2 cells; for IC50: read-out: IC50 value (approximate, discussion)
Procedure: as §1
The viability of L02 and HepG2 cells was determined using the CCK-8 assay. L02 and HepG2 cells (1 × 10^4 cells/well) were seeded into 96-well plates for 12 h until they visibly reached confluence. […] Consequently, these cells were incubated for 24 h, and 100 μl of 10% (v/v) CCK-8 medium solution was added to each well for 2 h. The absorbance (optical density (OD)) of the culture medium was detected at 450 nm using a Multiskan GO microplate reader (Thermo Fisher Scientific). Each experiment was repeated thrice, and each treatment was probed in at least six wells. The following equation was used to calculate the viability of the cells (%): Cell Viability (%)=ODcompound−ODblank/ODcontrol−ODblank×100%

L02 cells [5] = assay: Annexin V-FITC/PI flow cytometry apoptosis assay, L02 cells; assay type: cell-based, human; conditions: 48 h
Procedure: (§3) First, L02 and HepG2 cells were cultured in 6-well plates at a density of 5 × 10^5 cells/well. Then, they were treated with bavachin (17, 34, and 68 μmol/L), psoralidin (11.5, 23, and 46 μmol/L), bavachinin (15, 30, and 60 μmol/L), neobavaisoflavone (23.5, 47, and 94 μmol/L), and bakuchiol (13, 26, and 52 μmol/L) for 48 h, harvested, and washed with PBS. The apoptosis rate was measured using Pharmingen™ FITC Annexin V Apoptosis Detection Kit I (BD, 556,547, USA) following the instructions from the manufacturer. With the use of a FACSCalibur cytometer (Becton Dickinson, San Jose, CA, USA), 1 × 10^4 cells were acquired and analyzed.

L02 and HepG2 cells [6] = assay type: cell-based; conditions: human, 24 h
Procedure: (§4) Here, L02 and HepG2 cells were plated at a density of […] in 96-well plates. Then, they were treated with bavachin (17, 34, and 68 μmol/L), psoralidin (11.5 23, and 46 μmol/L), bavachinin (15, 30, and 60 μmol/L), neobavaisoflavone (23.5, 47, and 94 μmol/L), and bakuchiol (13, 26, and 52 μmol/L) for 24 h. Then Hoechst 33342, eBioscience™ JC-1 Mitochondrial Membrane Potential Dye, CellROX Deep Red, and HCS LipidTOX™ Green Phospholipidosis Detection Reagent kits were used to characterize their cell counts, nuclear area, MMP, ROS, and intracellular lipid. Consequently, multi-parameter cytotoxicity was analyzed through high-content screening (HCS) analysis (IN Cell Analyzer 2500 HS; Cytiva, Marlborough, MA, USA). Then, a 20× objective was used to collect all images. Three independent wells were examined for each treatment, and 16 fields per well were captured during the analysis. Lastly, HCS analysis was performed using Automated Image and Cell Analysis software (IN Cell Analyzer 2000; USA).

L02 and HepG2 cells [7] = assay: Annexin V-FITC/PI flow cytometry apoptosis assay, L02 and HepG2 cells not distinguished; assay type: cell-based, human
Procedure: as §3

L02 cells [8] = assay: HCS LipidTOX Green intracellular lipid assay, L02 cells; assay type: cell-based, human; conditions: 24 h
Procedure: as §4

L02 and HepG2 cells [9] = assay type: cell-based, human
Procedure: (§5) L02 and HepG2 cells were cultured in 6-well plates at a density of 2 × 10^5 cells/well. Subsequently, they were incubated with bavachin, psoralidin, bavachinin, neobavaisoflavone, and bakuchiol for 24 h, and the cell supernatant was collected. Lastly, aspartate aminotransferase (AST), alanine aminotransferase (ALT), and ALP were detected using a CX4 Pro automatic biochemical analyzer (Beckman, Brea, CA, USA).

HepG2 cells [10] = assay: HCS LipidTOX Green intracellular lipid assay, HepG2 cells; assay type: cell-based, human; conditions: 24 h
Procedure: as §4

HepG2 cells [11] = assay: HCS CellROX Deep Red ROS assay, HepG2 cells; assay type: cell-based, human
Procedure: as §4

L02 cells [12] = assay: HCS CellROX Deep Red ROS assay, L02 cells; assay type: cell-based, human; conditions: only at 68 μmol/L, 24 h
Procedure: as §4

L02 cells [13] = assay: ALP, ALT and AST in cell culture supernatant, L02 cells; assay type: cell-based, human
Procedure: as §5

L02 and HepG2 cells [14] = assay: HCS LipidTOX Green intracellular lipid assay, L02 and HepG2 cells not distinguished; assay type: cell-based, human
Procedure: as §4

HepG2 cells [15] = assay: ALP, ALT and AST in cell culture supernatant, HepG2 cells; assay type: cell-based, human; conditions: 46 μmol/L, 24 h
Procedure: as §5

L02 and HepG2 cells [16] = assay: HCS JC-1 mitochondrial membrane potential (MMP) assay, L02 and HepG2 cells; assay type: cell-based, human; conditions: 60 μmol/L; 24 h
Procedure: as §4

[17] = Homo sapiens, L02, CCK-8, incubation 24 h or 48 h, read-out: IC50 toward L02 cells
[18] = Homo sapiens, HepG2, CCK-8, incubation 24 h or 48 h, read-out: IC50 toward HepG2 cells
[19] = Homo sapiens, HepG2, cell line not distinguished

Compound: O=c1ccc2cc3ccoc3cc2o1 [Psoralen, psoralen]
IC50 (HepG2 cells [1]): ~400 µM | IC50 (L02 cells [2]; [17]): 284 µM | IC50 (HepG2 cells [3]; [18]): 739 µM | effect on cell viability / hepatocyte toxicity (in words) (L02 and HepG2 cells [4]): very low or no toxicity | effect on cell viability / hepatocyte toxicity (in words) (L02 and HepG2 cells [4]; listed as psoralen): little hepatocyte toxicity

Compound: CC(C)=CCc1cc(-c2coc3cc(O)ccc3c2=O)ccc1O [Neobavaisoflavone, neobavaisoflavone]
effect on ROS induction, L02 cells compared with HepG2 cells (L02 and HepG2 cells [6]): stronger effect on ROS induction in L02 cells than HepG2 cells | cell early apoptosis percentage (L02 and HepG2 cells [7]): markedly and progressively increased | effect on cell apoptosis (in words) (L02 and HepG2 cells [7]): induced apoptosis in a dose-dependent manner | ALP, ALT, and AST contents (L02 cells [13]): increased | IC50 (L02 cells [2]; [17]): 47.8 µM | IC50 (HepG2 cells [3]; [18]): 51.7 µM | effect on cell viability / hepatocyte toxicity (in words) (L02 and HepG2 cells [4]): intense repression of cell viability

Compound: O=c1ccc2ccc3occc3c2o1 [Isopsoralen, isopsoralen]
IC50 (L02 cells [2]; Homo sapiens, L02, read-out: IC50 toward L02 cells): 77.9 µM | IC50 (HepG2 cells [3]; Homo sapiens, HepG2, read-out: IC50 toward HepG2 cells): 174 µM | effect on cell viability / hepatocyte toxicity (in words) (L02 and HepG2 cells [4]): little hepatocyte toxicity; also recorded: very low or no toxicity

Compound: bavachinin
cell apoptosis at low dose concentration (L02 and HepG2 cells [7]; 15 μmol/L, 48 h): induced cell apoptosis | cell early apoptosis percentage (L02 and HepG2 cells [7]; as the concentration increased, compared with the control): markedly and progressively increased | ALP, ALT, and AST contents (L02 cells [13]; L02 cells, high dosage, 24 h): increased | effect on lipid accumulation, L02 cells compared with HepG2 cells (L02 and HepG2 cells [14]; 60 μmol/L): more substantial effect on lipid accumulation in L02 cells than HepG2 cells | lipid accumulation levels (L02 and HepG2 cells [14]; L02 and HepG2 cells, 24 h, p < 0.05, p < 0.01): promoted lipid accumulation | IC50 (L02 cells [2]; CCK-8, incubation 24 h or 48 h, read-out: IC50 toward L02 cells): 29.8 µM | ROS level (HepG2 cells [11]; HepG2 cells, 30 and 60 μmol/L, 24 h): increased | IC50 (HepG2 cells [3]; CCK-8, incubation 24 h or 48 h, read-out: IC50 toward HepG2 cells): 29.1 µM | effect on cell viability / hepatocyte toxicity (in words) (L02 and HepG2 cells [4]): intense repression of cell viability | IC50 (L02 and HepG2 cells [4]; cell line not distinguished): ~30 µM | MMP levels (L02 and HepG2 cells [16]): reduced

Continued by falling IC50 (HepG2 cells [3]; [18]), values first:

ROS level (L02 cells [12]): increased | IC50 (HepG2 cells [3]; [18]): 34.8 µM
Compound: CC(C)=CCc1cc2c(cc1O)O[C@H](c1ccc(O)cc1)CC2=O [Bavachin, bavachin]
apoptotic cell percentage (L02 cells [5]; L02 cells, increased from 6.7%, concentration not given): 44.47% | cell early apoptosis percentage (L02 and HepG2 cells [7]): markedly and progressively increased | ALP, ALT, and AST contents (L02 cells [13]): increased | effect on lipid accumulation, L02 cells compared with HepG2 cells (L02 and HepG2 cells [14]; human, 24 h, 68 μmol/L): stronger inducing effect on lipid accumulation in the HepG2 cells | IC50 (L02 cells [2]; [17]): 33.9 µM | IC50 (L02 and HepG2 cells [4]; [19]): ~30 µM | effect on cell viability / hepatocyte toxicity (in words) (L02 and HepG2 cells [4]): intense repression of cell viability

ROS generation (HepG2 cells [11]): promoted ROS generation | IC50 (HepG2 cells [3]; [18]): 34.5 µM
Compound: C=C[C@@](C)(/C=C/c1ccc(O)cc1)CCC=C(C)C [Bakuchiol, bakuchiol]
necrotic cell percentages (L02 cells [5]; 52 μmol/L, Figure 7I): 34.6% | effect on ROS induction, L02 cells compared with HepG2 cells (L02 and HepG2 cells [6]; 52 μmol/L): stronger effect on ROS induction in L02 cells than HepG2 cells | cell early apoptosis percentage (L02 and HepG2 cells [7]): markedly and progressively increased | effect on cell apoptosis (in words) (L02 and HepG2 cells [7]): induced apoptosis in a dose-dependent manner | lipid accumulation, times higher than control (L02 cells [8]; 13 μmol/L): 1.88 times | lipid accumulation, times higher than control (L02 cells [8]; 26 μmol/L): 2.18 times | lipid accumulation, times higher than control (L02 cells [8]; 52 μmol/L): 3.37 times | effect on ALP, ALT, and AST contents (in words, discussion) (L02 and HepG2 cells [9]): little effect | increase of ALP, ALT, and AST levels (discussion) (L02 and HepG2 cells [9]): five times | IC50 (L02 cells [2]; [17]): 25.9 µM | lipid accumulation, times higher than control (HepG2 cells [10]; first of three doses (13 μmol/L)): 1.27 times | lipid accumulation, times higher than control (HepG2 cells [10]; second of three doses (26 μmol/L)): 2.37 times | lipid accumulation, times higher than control (HepG2 cells [10]; third of three doses (52 μmol/L)): 5.84 times | IC50 (L02 and HepG2 cells [4]; [19]): ~25 µM | effect on cell viability / hepatocyte toxicity (in words) (L02 and HepG2 cells [4]): more potent inhibitory effects on cell viability than other compounds

IC50 (HepG2 cells [3]; [18]): 23.4 µM
Compound: CC(C)=CCc1cc2c(cc1O)oc(=O)c1c3ccc(O)cc3oc21 [Psoralidin, psoralidin]
effect on cell apoptosis (in words) (L02 and HepG2 cells [7]): little effect on cell apoptosis | apoptotic cell percentage (L02 and HepG2 cells [7]; 46 μmol/L, 48 h, Figure 7C,D): 17% | effect on lipid accumulation, L02 cells compared with HepG2 cells (L02 and HepG2 cells [14]; human, 24 h): more substantial effect on lipid accumulation in L02 cells than HepG2 cells | increase of ALP, ALT, and AST levels (discussion) (L02 and HepG2 cells [9]): five times | induction of ALP, ALT, and AST contents (L02 and HepG2 cells [9]): more than fivefold | ALP level, times higher than control (HepG2 cells [15]): 5.7 times | AST level, times higher than control (HepG2 cells [15]): 5.4 times | IC50 (L02 cells [2]; [17]): 23.1 µM | IC50 (L02 and HepG2 cells [4]; [19]): ~25 µM | effect on cell viability / hepatocyte toxicity (in words) (L02 and HepG2 cells [4]): more potent inhibitory effects on cell viability than other compounds
